Reference: the supplement of paper PMC13380429

Tests used:
Conditions in all cases: 72 h
Caco-2 [1] = assay: relative viability EC50 (midpoint between 100% and the lowest measured viability); higher = less toxic
Vero E6 [2] = assay: as above
HepG2 [3] = assay: as above
Calu-3 [4] = assay: as above
U2OS [5] = assay: as above
Caco-2 [6] = assay: drug sensitivity score (DSS) for viability; higher = more toxic; extreme values may be limits of the assay
Vero E6 [7] = assay: as above
HepG2 [8] = assay: as above
Calu-3 [9] = assay: as above
U2OS [10] = assay: as above
Caco-2 [11] = assay: cell viability relative to DMSO; higher = less toxic
Vero E6 [12] = assay: as above
HepG2 [13] = assay: as above
Calu-3 [14] = assay: as above
U2OS [15] = assay: as above

| Structure (SMILES) | relative viability EC50 (Caco-2 [1]) | relative viability EC50 (Vero E6 [2]) | relative viability EC50 (HepG2 [3]) | relative viability EC50 (Calu-3 [4]) | relative viability EC50 (U2OS [5]) | drug sensitivity score (Caco-2 [6]) | drug sensitivity score (Vero E6 [7]) | drug sensitivity score (HepG2 [8]) | drug sensitivity score (Calu-3 [9]) | drug sensitivity score (U2OS [10]) | cell viability (Caco-2 [11]; 1 nM) | cell viability (Caco-2 [11]; 10 nM) | cell viability (Caco-2 [11]; 100 nM) | cell viability (Caco-2 [11]; 1000 nM) | cell viability (Caco-2 [11]; 10000 nM) | cell viability (Vero E6 [12]; 1 nM) | cell viability (Vero E6 [12]; 10 nM) | cell viability (Vero E6 [12]; 100 nM) | cell viability (Vero E6 [12]; 1000 nM) | cell viability (Vero E6 [12]; 10000 nM) | cell viability (HepG2 [13]; 1 nM) | cell viability (HepG2 [13]; 10 nM) | cell viability (HepG2 [13]; 100 nM) | cell viability (HepG2 [13]; 1000 nM) | cell viability (HepG2 [13]; 10000 nM) | cell viability (Calu-3 [14]; 1 nM) | cell viability (Calu-3 [14]; 10 nM) | cell viability (Calu-3 [14]; 100 nM) | cell viability (Calu-3 [14]; 1000 nM) | cell viability (Calu-3 [14]; 10000 nM) | cell viability (U2OS [15]; 1 nM) | cell viability (U2OS [15]; 10 nM) | cell viability (U2OS [15]; 100 nM) | cell viability (U2OS [15]; 1000 nM) | cell viability (U2OS [15]; 10000 nM) |
| --- | --- | --- | --- | --- | --- | --- | --- | --- | --- | --- | --- | --- | --- | --- | --- | --- | --- | --- | --- | --- | --- | --- | --- | --- | --- | --- | --- | --- | --- | --- | --- | --- | --- | --- | --- |
| N=C(NCc1ccc(Cl)cc1)SCCCc1c[nH]cn1 [clobenpropit] | > 10 µM | > 10 µM | > 10 µM | > 10 µM | > 10 µM | 0 | 0 | 0.2 | 0.3 | 0 | 97.5% | 96.2% | 101% | 93.5% | 104% | 101% | 100% | 97.4% | 93.3% | 97.5% | 94.2% | 106% | 105% | 102% | 84% | 108% | 100% | 103% | 101% | 82.4% | 110% | 104% | 99.5% | 98.3% | 99.6% |
| Cn1cc(-c2ccc3nnc(C(F)(F)c4ccc5ncccc5c4)n3n2)cn1 | > 10 µM | > 10 µM | > 10 µM | > 10 µM | > 10 µM | 0 | 0 | 0 | 0 | 0 | 105% | 96% | 95.3% | 95.9% | 92.3% | 99.9% | 107% | 101% | 97.8% | 92.4% | 102% | 94.3% | 105% | 109% | 104% | 97.4% | 104% | 89.6% | 108% | 106% | 104% | 101% | 101% | 95.5% | 96.9% |
| CCCN[C@H]1CCc2nc(N)sc2C1 [pramipexole] | > 10 µM | > 10 µM | > 10 µM | > 10 µM | > 10 µM | 0 | 0 | 0 | 0 | 0 | 97.3% | 103% | 99.7% | 96.8% | 107% | 104% | 104% | 105% | 99% | 101% | 88.2% | 90.8% | 109% | 99.3% | 108% | 91.7% | 111% | 107% | 102% | 110% | 96.2% | 98.2% | 95.5% | 98.6% | 103% |
| O=S(=O)(/N=C/c1c(O)ccc2ccccc12)c1cccs1 | > 10 µM | > 10 µM | > 10 µM | > 10 µM | > 10 µM | 0 | 0 | 0 | 0 | 0 | 102% | 95.8% | 97.4% | 95.9% | 103% | 99.9% | 102% | 100% | 106% | 94.5% | 100% | 120% | 96.8% | 109% | 99.9% | 91.3% | 99.3% | 99.8% | 104% | 100% | 103% | 100% | 98.9% | 99.5% | 103% |
| Nc1nc(NC2CC2)cc(-c2cccc(Cl)c2Cl)n1 [TH-588] | > 10 µM | > 10 µM | > 10 µM | > 10 µM | > 10 µM | 0 | 0 | 0 | 0 | 0 | 92.1% | 91.1% | 96.4% | 93.7% | 96.8% | 100% | 104% | 98.1% | 101% | 89.6% | 95.4% | 97.1% | 102% | 101% | 95.4% | 95.5% | 94% | 101% | 104% | 98.5% | 96.3% | 99.2% | 105% | 97.9% | 98.6% |
| COc1ccc2c3c1O[C@H]1C[C@@H](O)C=C[C@@]31CCN(C)C2 [galantamine] | > 10 µM | > 10 µM | > 10 µM | > 10 µM | > 10 µM | 0 | 0 | 0 | 0 | 0 | 90.2% | 104% | 106% | 112% | 108% | 102% | 99.1% | 103% | 90.8% | 93.6% | 84.5% | 105% | 85.8% | 102% | 100% | 96.9% | 91.2% | 103% | 104% | 99.9% | 101% | 95.4% | 96.5% | 104% | 104% |
| Cc1ccc(S(N)(=O)=O)cc1 [para-toluenesulfonamide] | > 10 µM | > 10 µM | > 10 µM | > 10 µM | > 10 µM | 0 | 0 | 0 | 0 | 0 | 103% | 99.2% | 98.1% | 98.9% | 100% | 102% | 94.6% | 98.4% | 99.2% | 103% | 105% | 107% | 110% | 94.4% | 120% | 102% | 94.8% | 91.1% | 91.8% | 95.9% | 100% | 96% | 97.7% | 102% | 104% |
| O=C(NCCCCN1CCN(c2cccc(Cl)c2Cl)CC1)c1ccc2c(c1)Cc1ccccc1-2 [NGB-2904] | > 10 µM | > 10 µM | > 10 µM | > 10 µM | > 10 µM | 0 | 0 | 0 | 0 | 0 | 89.4% | 97.2% | 97% | 109% | 103% | 96.7% | 91.2% | 93.6% | 89.5% | 98.3% | 107% | 94.1% | 99.3% | 91.2% | 92.9% | 94.3% | 97.9% | 86.5% | 108% | 99.9% | 93.5% | 102% | 95.6% | 102% | 100% |
| COc1ccc(Nc2ncnc3ccc(OC)cc23)cc1 | > 10 µM | > 10 µM | > 10 µM | > 10 µM | > 10 µM | 0 | 0.2 | 0.6 | 1.5 | 0 | 105% | 102% | 101% | 99.5% | 91.3% | 102% | 106% | 99.6% | 100% | 85.2% | 106% | 98.3% | 93.5% | 93% | 83% | 93.9% | 108% | 95.4% | 89.6% | 77.5% | 101% | 102% | 103% | 99% | 106% |
| N[C@@H](Cc1cc(-c2ccc(Cl)cc2Cl)cc(CP(=O)(O)O)c1O)C(=O)O [SDZ-220-040] | > 10 µM | > 10 µM | > 10 µM | > 10 µM | > 10 µM | 0 | 0 | 0 | 0 | 0 | 103% | 99.5% | 94.3% | 94.3% | 102% | 98.7% | 102% | 106% | 104% | 100% | 97.4% | 108% | 99.2% | 104% | 89.1% | 105% | 104% | 98.2% | 108% | 110% | 105% | 98.6% | 103% | 98.2% | 100% |
| O=[N+]([O-])c1ccc2c(c1)S(=O)(=O)C=C2 [stattic] | 2.3 µM | 2.79 µM | 3.29 µM | 3.99 µM | 2.69 µM | 6.1 | 6.1 | 5.4 | 3.2 | 6.4 | 97.6% | 90.3% | 99% | 91.2% | 16.1% | 95.8% | 99% | 99.1% | 95.3% | 2.5% | 96.3% | 95.7% | 107% | 102% | -0.2% | 107% | 95.2% | 97.7% | 117% | 27.3% | 99.1% | 95.6% | 98.6% | 94% | 0.6% |
| OC(CN1CCN(c2cccc(Cl)c2)CC1)C(c1ccccc1)c1ccccc1 (stereo not given) | > 10 µM | > 10 µM | > 10 µM | > 10 µM | > 10 µM | 0 | 0 | 0 | 0 | 0 | 93.3% | 101% | 101% | 94.4% | 105% | 95.5% | 96.9% | 88.9% | 99.7% | 104% | 103% | 102% | 92.4% | 108% | 102% | 102% | 110% | 98.6% | 99.9% | 104% | 95.2% | 97.9% | 98.2% | 95.8% | 92.8% |
| C[C@@]1(F)[C@H](O)[C@@H](CO)O[C@H]1n1ccc(N)nc1=O [PSI-6130] | > 10 µM | > 10 µM | > 10 µM | > 10 µM | > 10 µM | 0 | 0 | 0 | 0 | 0 | 94.8% | 96.8% | 94.7% | 103% | 108% | 101% | 93.3% | 100% | 92.5% | 106% | 103% | 91.8% | 106% | 100% | 107% | 99.3% | 99.6% | 96% | 100% | 96.7% | 95.5% | 101% | 96.9% | 100% | 107% |
| CCOC(=O)n1ccn(C)c1=S [carbimazole] | > 10 µM | > 10 µM | > 10 µM | > 10 µM | > 10 µM | 0 | 0 | 0 | 0 | 0 | 98% | 98.7% | 100% | 104% | 100% | 90.9% | 89.5% | 91.2% | 93.7% | 108% | 94.7% | 99.8% | 93.3% | 90.6% | 103% | 92.4% | 95.4% | 101% | 104% | 107% | 99.5% | 91% | 94.4% | 101% | 103% |
